Tests used:
184B5 = test: SRB-based cytotoxicity assay; assay type: cell-based; details: 184B5 non-cancer
Experimental: (§1) For (anti)proliferation assays, 4,000-5,000 cells/well of the 96-well clustered dish were incubated for 16 hours, as described previously (Hu et al., 2008; Skehan et al., 1990). After 16 hours, culture medium was replaced with fresh medium containing different dilutions of test compounds dissolved in DMSO. Some wells were treated with 100 μl of 10% trichloroacetic acid (TCA) as a negative control and sham (medium with dimethyl sulfoxide; DMSO) treated cells were used as a positive control. After 72 hours post-incubation, medium was removed and cells were fixed with 10% TCA at 4° C. for 1 hour. TCA was removed and cells were washed with cold tap water, and plate was air-dried, followed by addition of 50 μl of 0.4% SRB staining solution to each well. After 30 minutes incubation, SRB staining solution was removed. Cells were washed with 1% acetic acid solution, and then washed with tap water to remove unbound staining solution, followed by air-drying. 200 μl of 10 mM (pH10.5) trizma base buffer was added to each well to solubilise macromolecules. SRB stained macromolecules were determined at a 540 nm wavelength using an automated plate reader (Synergy H4 Hybrid Multi-Mode Microplate Reader, BioTek, Winooski, Vt.). Cell growth (inhibition) was calculated by the following formula:
(§2) % cells proliferation=[(AT−CT)/(ST−CT)]×100
(§3) wherein AT=absorbance of treated cells, CT=absorbance of negative control cells, and ST=absorbance of sham treated cells. IC50 values were calculated from sigmoidal dose-response curves generated by two independent biological replicates, with quadruplicate in each set by using Graph Pad Prism v.5.04 software. […] The combinational index (CI) was calculated as described previously (Chou 2006). If the CI values were less than, equal to or more than 1, it indicates a synergistic, additive or antagonistic effect respectively (Chou 2006). CI values were determined from four independent experiments.

MCF-10A = test: SRB-based cytotoxicity assay; assay type: cell-based; details: Homo sapiens, MCF-10A; MCF10A non-cancer; 72 hours; Table 4
Experimental: as §1, §2, §3

MDA-MB-231 = test: SRB-based cytotoxicity assay; assay type: cell-based, human
Experimental: as §1, §2, §3

MDA-MB231TaxR = test: SRB-based cytotoxicity assay, single and combination with paclitaxel; assay type: cell-based; details: TaxR selected in 100.0 nM paclitaxel
Experimental: All of the cell lines used were purchased from ATCC and cultured in RPMI-1640 supplemented with 10% fetal bovine serum and antibiotics (100 units penicillin/100 μg/ml streptomycin), unless stated otherwise. 1845B5 and MCF-10A non-cancer breast cell lines were cultured in DME/F12 medium supplemented with 10% fetal bovine serum, antibiotics and growth factors. […] The human small cell lung carcinoma H69 cell line and its multidrug-resistant MRP1-overexpressing isogenic H69AR cell line were purchased from ATCC. […] H69 cells grow as large multi-cell aggregates, making it difficult to accurately count cell numbers. […] The IL-6 dependent bortezomib-resistant ANBL6-BR cell line was further supplemented with 1 ng/ml of IL-6. The MCF10AT1 and MCF10CA1a cell lines are isogenic to the MCF10A cell line, and obtained from Dr. Valerie Weaver at the Center for Bioengineering and Tissue Regeneration, UCSF, CA, USA. MCF10AT1 is a premalignant cell line generated by transforming MCF10A with c-Ha-Ras; and MCF10CA1a was isolated by selecting malignant cells after MCF10AT1 cells were engrafted into mice (Liu & Lin 2004; […] et al. 2009). […] The drug-resistant cells were cultured in the absence of drug for at least one passage before carrying out experiments. All cells were maintained in a humidified incubator at 37° C. […] Cell line authentication was performed using short tandem repeat (STR) profiling. For (anti)proliferation assays, 4,000-5,000 cells/well of the 96-well clustered dish were incubated for 16 hours, as described previously (Hu et al., 2008; Skehan et al., 1990). […] Some wells were treated with 100 μl of 10% trichloroacetic acid (TCA) as a negative control and sham (medium with dimethyl sulfoxide; DMSO) treated cells were used as a positive control. […] TCA was removed and cells were washed with cold tap water, and plate was air-dried, followed by addition of 50 μl of 0.4% SRB staining solution to each well. After 30 minutes incubation, SRB staining solution was removed. Cells were washed with 1% acetic acid solution, and then washed with tap water to remove unbound staining solution, followed by air-drying. 200 μl of 10 mM (pH10.5) trizma base buffer was added to each well to solubilise macromolecules. […] Cell growth (inhibition) was calculated by the following formula: % cells proliferation=[(AT-CT)/(ST-CT)]×100 wherein AT=absorbance of treated cells, CT=absorbance of negative control cells, and ST=absorbance of sham treated cells. […] The combinational index (CI) was calculated as described previously (Chou 2006). […] CI values were determined from four independent experiments.

MCF-7 = test: SRB-based cytotoxicity assay; assay type: cell-based, human
Experimental: as §1, §2, §3

MDA-MB-468 = test: SRB-based cytotoxicity assay; assay type: cell-based, human; details: MDA-MB-468, SRB, Table 2
Experimental: as §1, §2, §3

RPMI-8226BTZR = test: Killing of bortezomib-resistant multiple myeloma cells; assay type: cell-based
Description: The RPMI-8226BTZR over-expresses β1, β2 and β5 peptides of the 20S subunit. […] However, RPMI-8226BTZR is sensitive to CTR-20, CTR-21 and CTR-32 (FIG. 36).

HeLa = test: SRB-based cytotoxicity assay; assay type: cell-based; details: Homo sapiens; HeLa; 72 hours; Table 4
Experimental: as §1, §2, §3

RPMI-8226 (myeloma) = test: SRB-based cytotoxicity assay; assay type: cell-based; details: Homo sapiens, 72 hours, Table 4
Experimental: as §1, §2, §3

[1] = Homo sapiens, 72 hours, Table 4

Structure (SMILES)	IC50 (184B5; [1]) [µM]	IC50 (MCF-10A) [µM]	other results
CCOc1ccccc1C(=O)/C=C/c1cc2cc(OC)ccc2[nH]c1=O [CTR-40, (E)-3-(3-(2-ethoxyphenyl)-3-oxoprop-1-enyl)-6-methoxyquinolin-2(1H)-one]	0.1 ± 0.01	0.07	–
COc1ccc2[nH]c(=O)c(/C=C/C(=O)c3ccc(OC(F)(F)F)cc3OC)cc2c1 [CTR-36]	1.84 ± 0.07	1.35 ± 0.16	–
COc1ccc(C(=O)/C=C/c2cc3cc(OC)ccc3[nH]c2=O)c(OC)c1 [CTR-35]	4.29 ± 0.06	2.88 ± 0.54	–
COc1ccc(OC)c(C(=O)/C=C/c2cc3cc(OC)ccc3[nH]c2=O)c1 [CTR-34]	1.16 ± 0.1	0.98 ± 0.04	–
CN(C)CC[C@H](CSc1ccccc1)Nc1ccc(S(=O)(=O)NC(=O)c2ccc(N3CCN(Cc4ccccc4-c4ccc(Cl)cc4)CC3)cc2)cc1[N+](=O)[O-] [ABT-737, reference compound]	–	–	Cell survival rate (MDA-MB-231; single agent 3.125 μM, MDA-MB231): 98.61 ± 3.93; Cell survival rate (MDA-MB-231; single agent 6.25 μM, MDA-MB231): 91.01 ± 9.81
COc1cc2c(c(OC)c1OC)-c1ccc(OC)c(=O)cc1[C@@H](NC(C)=O)CC2 [Colchicine, reference compound]	–	–	killing of MDA-MB231TaxR compared with parental MDA-MB231 (MDA-MB231TaxR): to the same degree as the parental MDA-MB231 cells
COc1ccc2[nH]c(=O)c(/C=C/C(=O)c3ccc(F)cc3OC)cc2c1 [CTR-38]	0.16 ± 0.02	0.11	–
CCN(CC)CCCC(C)Nc1ccnc2cc(Cl)ccc12 (stereo not shown) [Chloroquine, reference compound]	–	–	IC50 (MCF-7; Homo sapiens, MCF7, MCF-7, SRB, Table 2): 38.4 µM; IC50 (MDA-MB-231; Homo sapiens, MDA-MB-231, SRB, Table 2): 22.5 µM; IC50 (MDA-MB-468; Homo sapiens): 28.6 µM; IC50 (184B5; Homo sapiens, SRB, Table 2): 76.1 µM
COc1cccc(OC)c1C(=O)/C=C/c1cc2ccccc2[nH]c1=O [CTR-25, (E)-3-(3-(2,6-dimethoxyphenyl)-3-oxoprop-1-enyl)quinolin-2(1H)-one]	2.64 ± 0.17	2.64 ± 0.15	–
N.N.[Cl][Pt][Cl] [Cisplatin, reference compound]	–	–	IC50 (MCF-7; MCF-7, SRB, Table 2): 25.8 µM; IC50 (MDA-MB-231; MDA-MB-231, SRB, Table 2): 23.7 µM; IC50 (MDA-MB-468): 31 µM; IC50 (184B5; SRB, Table 2): 25.5 µM
COc1ccc(C(=O)/C=C/c2cc3ccccc3[nH]c2=O)c(OC)c1 [CTR-27]	2.8 ± 0.18	2.52 ± 0.03	IC50 (MDA-MB-231; MDA-MB231, 72 hours, Table 4): 2.69 ± 0.24 µM
CC(C)C[C@H](NC(=O)[C@H](Cc1ccccc1)NC(=O)c1cnccn1)B(O)O [bortezomib, reference compound]	–	–	resistance of RPMI-8226BTZR compared to RPMI-8226 parental cells (RPMI-8226BTZR): approximately 28 fold
COc1ccc(OC)c(C(=O)/C=C/c2cc3ccccc3[nH]c2=O)c1 [CTR-26]	0.77 ± 0.11	0.91 ± 0.03	–
COc1ccc(F)cc1C(=O)/C=C/c1cc2ccccc2[nH]c1=O [CTR-29]	0.28 ± 0.01	0.27 ± 0.05	–
COc1ccccc1C(=O)/C=C/c1cc2cc(C)c(C)cc2[nH]c1=O [CTR-23]	1.32 ± 0.03	1.12 ± 0.04	IC50 (MCF-7; Homo sapiens, MCF7, 72 hours, Table 4): 0.5 ± 0.1 µM; IC50 (MDA-MB-231; Homo sapiens, MDA-MB-231, MDA-MB231, 72 hours, Table 4): 1.52 ± 0.12 µM; IC50 (HeLa): 0.64 ± 0.05 µM; IC50 (RPMI-8226 (myeloma)): 1.41 ± 0.15 µM
COc1cc(F)ccc1C(=O)/C=C/c1cc2ccccc2[nH]c1=O [CTR-30]	2.46 ± 0.14	2.79 ± 0.59	–
COc1ccc2[nH]c(=O)c(/C=C/C(=O)c3cc(F)ccc3OC)cc2c1 [CTR-37]	0.44 ± 0.02	0.46 ± 0.11	–
COc1cc2cc(/C=C/C(=O)c3ccccc3OC)c(=O)[nH]c2cc1OC [CTR-24]	2.37 ± 0.19	2.1 ± 0.39	–

— US20180344725A1, “QUINOLONE CHALCONE COMPOUNDS AND USES THEREOF” (priority 2015, published 2018)
